Assay results from patent US9089499B2, “Para-coumaric acid or para-hydroxycinnamic acid derivatives and their use in cosmetic or dermatological compositions” (BASF Beauty Care Solutions France S.A.S., priority 2005, dated 2015).
Read-outs that look alike come from different tables or passages of the source. Each block holds one compound with its values, some of them ahead of it.

Assays:
Human tyrosinase [1] = target: T1, Human tyrosinase (Homo sapiens, UniProt P14679); test: Inhibition of human tyrosinase after 24 h application to normal human melanocytes in monolayer; assay type: cell-based; conditions: for anti-tyrosinase activity, in words: comment on Table 4, normal human melanocytes; for inhibition at 1000 µM: 10^−3 M; for Tyrosinase inhibition, Mean Inhibition (%), 0.03%: test concentration 0.03%
T1 construct: endogenous in cells; host or cells: normal human melanocytes (abdominal surgery; several donors of fair, brown and black phototypes)
T1 sequence (P14679 19-529): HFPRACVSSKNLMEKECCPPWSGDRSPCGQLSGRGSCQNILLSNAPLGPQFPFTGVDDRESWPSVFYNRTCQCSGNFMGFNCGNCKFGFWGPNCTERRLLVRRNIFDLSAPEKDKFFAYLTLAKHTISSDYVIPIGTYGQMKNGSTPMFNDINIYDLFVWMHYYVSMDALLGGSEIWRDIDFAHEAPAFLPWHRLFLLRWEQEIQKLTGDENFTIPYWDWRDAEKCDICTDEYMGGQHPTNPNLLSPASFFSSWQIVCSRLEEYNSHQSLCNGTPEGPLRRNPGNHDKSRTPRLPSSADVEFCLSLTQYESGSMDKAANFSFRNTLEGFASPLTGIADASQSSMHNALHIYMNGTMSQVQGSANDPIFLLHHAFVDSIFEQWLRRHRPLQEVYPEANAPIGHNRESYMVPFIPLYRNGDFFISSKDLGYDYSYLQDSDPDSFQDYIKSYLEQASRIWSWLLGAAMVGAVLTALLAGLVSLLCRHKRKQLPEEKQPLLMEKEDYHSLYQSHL
Procedure: Normal human melanocytes (obtained from abdominal surgery) are seeded in 24-well plates at a rate of 80 000 cells per well. They are cultured to confluence and the active agents are applied for 24 hours to the culture media. After 24 hours, the media are removed and the melanocytes are detached via mechanical action. An extraction is performed via a thermal shock and the supernatants are then recovered and incubated with MBTH (Sigma) and L-dopa (Sigma). The OD at 490 nm is measured after 30 minutes, and the tyrosinase inhibition is calculated by relating the OD at 490 nm to the protein content (measured in each culture well) of the test relative to the ratio: OD 490 nm/protein concentration of the negative control (untreated control).
The compounds derived from the examples mentioned above were tested on melanocytes derived from various donors but of fair phototype, according to the protocol described in Example 29. The donors tested are as follows: • donor S (donor tested in Example 12): • donor 1: • donor 2: • donor 3
The compound derived from Example 1 is tested on cultures of melanocytes obtained from 2 donors of brown phototype and from one donor of black phototype. The protocol applied is that described in Example 29. […]

normal human melanocytes = test: Cytotoxicity on normal human melanocytes, PNPP assay; assay type: cell-based; conditions: 24 hours, relative to untreated wells
Procedure: The cytotoxicity of the active agents is studied on normal human melanocytes in 24-well plates, via assay with PNPP (P-nitrophenyl phosphate), this substance being converted into p-nitrophenol via the intracellular acid phosphatases of viable cells. The absorbance of p-nitrophenol at 405 nm is directly proportional to the number of viable cells.
The active agents are tested at 2 different concentrations (10^−4 M and 10^−5 M) and added to the culture medium and incubated at 37° C. for 24 hours. The assay with PNPP is performed on the cell lawn and the results are expressed as a percentage of viability relative to the negative control (untreated wells).

Human tyrosinase [2] = target: T1, Human tyrosinase; test: In vitro test of inhibition of human tyrosinase from melanocyte extracts (L-dopa/MBTH, OD 490 nm); assay type: biochemical; conditions: melanocyte extract; for inhibition at 100 µM: 10^−4M, read-out: Inhibition of human tyrosinase, percentage of inhibition, Mean 10^−4M; for inhibition at 10 µM: 10^−5M, read-out: Inhibition of human tyrosinase, percentage of inhibition, Mean 10^−5M
Procedure: Human tyrosinase, obtained from melanocyte extracts obtained from healthy donors, catalyses the formation of L-dopaquinone from L-dopa. Now, the L-dopaquinone may be quantified by visible spectrophotometry at 490 nm by means of a chromogen: 3-methyl-2-benzothiazolinone hydrazone (MBTH).
The melanocyte extract is obtained after lysis of cell membranes of the normal human melanocytes, performed via a thermal shock. The supernatant is recovered and then incubated with MBTH (Sigma) and L-dopa (Sigma). […]

[3] = Antiradical activity, acellular DPPH model; conditions: DPPH 30 minutes, absorbance 520 nm
Procedure: The antiradical activity of the derivatives derived from the syntheses described above was evaluated in an in vitro acellular model using DPPH.
1,1-Diphenyl 2-picryihydrazyl, on account of its paramagnetic structure, can accept an electron or a hydrogen radical to become a stable diamagnetic molecule. This free radical, which is purple coloured in ethanol, has a strong absorption band at 520 nm.
The addition of a compound that provides electrons results in a decolorization of the 1,1-diphenyl 2-picrylhydrazyl that is proportional to the number of electrons taken up by the radical, which may be monitored by measuring the absorbance at 520 nm.
DPPH is incubated for 30 minutes in the presence of the derivatives described above, tested at a concentration of 10^−5M, or alone for the control. At the end of the incubation, the antiradical activity of the above derivatives is evaluated by measuring the absorbance of the solution at 520 nm.
The antiradical activity of each test product is calculated according to the formula, as a percentage: 100−((OD520 in the presence of the test compound/OD520 in the absence of compound)×100)

fungal tyrosinase = test: In vitro test of inhibition of isolated fungal tyrosinase (L-dopa, dopachrome OD 490 nm); assay type: biochemical
From the text: Tyrosinase catalyses the formation of L-dopaquinone and then of dopachrome from L-dopa. Now, dopachrome is a coloured compound that may be quantified by visible spectrophotometry at 490 nm. The use of an active agent capable of modifying the enzymatic activity will be reflected by a variation in the optical density at 490 nm. The to ratio of the rates of formation of dopachrome makes it possible to determine precisely the activations or inhibitions obtained with the various test molecules.
The sample to be tested is incubated in the presence of fungal tyrosinase (Sigma), for 5 minutes with stirring. L-Dopa (Sigma), a tyrosinase substrate, is incubated for 10 minutes in the absence of light, in the presence or absence of the test molecules. The calculation of the percentage of inhibition is performed by relating the test OD to the OD of the negative control without molecule.
In the context of this in vitro test, the p-coumaric acid derivatives were tested at final concentrations of 10^−4M and 10^−5M.

melanocytes = test: Cytotoxicity of literature controls in the melanocyte tyrosinase model
Procedure: A study is performed with molecules known in the literature for their depigmenting activity; these molecules are applied to the model described in Example 29 so as to compare their efficacy relative to the molecules described in the various examples. […]

[4] = 10^−4M, 24 hours, read-out: Inhibition of human tyrosinase after application to normal human melanocytes, percentage of inhibition, Mean 10^−4M
[5] = 10^−5M, 24 hours, read-out: Inhibition of human tyrosinase after application to normal human melanocytes, percentage of inhibition, Mean 10^−5M
[6] = read-out: Inhibition of human tyrosinase after application to normal human melanocytes, percentage of inhibition, Mean 10^−4M

inhibition at 100 µM (Human tyrosinase [2]): 0.94%
inhibition at 10 µM (Human tyrosinase [2]): 0%
inhibition at 100 µM (Human tyrosinase [1]; [4]): 24.6%
inhibition at 10 µM (Human tyrosinase [1]; [5]): 18.5%
Inhibition of fungal tyrosinase, percentage of inhibition, Mean 10^−4M (fungal tyrosinase; 490 nm): 0%
Compound: COc1cc(/C=C/C(=O)NCCc2ccc(OC)c(OC)c2)ccc1O [Example 2, N-trans-feruloyl-3,4-dimethoxydopamine]
Percentages of viability, Mean 10^−4 M (normal human melanocytes): 114.29%
Percentages of viability, Mean 10^−5 M (normal human melanocytes): 114.6%
Antiradical activity, Mean 10^−5 M [3]: 20.16%

inhibition at 100 µM (Human tyrosinase [2]): 0%
inhibition at 10 µM (Human tyrosinase [2]): 7.56%
inhibition at 100 µM (Human tyrosinase [1]; [4]): 49.6%
inhibition at 10 µM (Human tyrosinase [1]; [5]): 33.1%
inhibition at 1000 µM (Human tyrosinase [1]; B103, Donor B, brown phototype, read-out: Inhibition of tyrosinase, Mean Donor B, 10^−3 M): 87.4%
inhibition at 100 µM (Human tyrosinase [1]; B104, Donor B, brown phototype, 10^−4 M, read-out: Inhibition of tyrosinase, Mean Donor B, 10^−4 M): 30.5%
inhibition at 100 µM (Human tyrosinase [1]; Donor 1, fair phototype, 10^−4 M, read-out: Inhibition of tyrosinase, Mean 10^−4 M, Donor 1): 44.8%
inhibition at 10 µM (Human tyrosinase [1]; Donor 1, fair phototype, 10^−5 M, read-out: Inhibition of tyrosinase, Mean 10^−5 M, Donor 1): 0%
inhibition at 100 µM (Human tyrosinase [1]; Donor 2, fair phototype, 10^−4 M, read-out: Inhibition of tyrosinase, Mean 10^−4 M, Donor 2): 10.7%
inhibition at 10 µM (Human tyrosinase [1]; Donor 2, fair phototype, 10^−5 M, read-out: Inhibition of tyrosinase, Mean 10^−5 M, Donor 2): 0%
inhibition at 100 µM (Human tyrosinase [1]; Donor 3, fair phototype, 10^−4 M, read-out: Inhibition of tyrosinase, Mean 10^−4 M, Donor 3): 57.9%
inhibition at 10 µM (Human tyrosinase [1]; Donor 3, fair phototype, 10^−5 M, read-out: Inhibition of tyrosinase, Mean 10^−5 M, Donor 3): 42.5%
inhibition at 1000 µM (Human tyrosinase [1]; Donor A, brown phototype, read-out: Inhibition of tyrosinase, Mean Donor A, 10^−3 M): 85.6%
inhibition at 100 µM (Human tyrosinase [1]; Donor A, brown phototype, 10^−4 M, read-out: Inhibition of tyrosinase, Mean Donor A, 10^−4 M): 40.4%
inhibition at 10 µM (Human tyrosinase [1]; Donor A, brown phototype, 10^−5 M, read-out: Inhibition of tyrosinase, Mean Donor A, 10^−5 M): 15.6%
inhibition at 10 µM (Human tyrosinase [1]; Donor B, brown phototype, 10^−5 M, read-out: Inhibition of tyrosinase, Mean Donor B, 10^−5 M): 16.7%
inhibition at 100 µM (Human tyrosinase [1]; Donor S, fair phototype, 10^−4 M, read-out: Inhibition of tyrosinase, Mean 10^−4 M, Donor S): 49.6%
inhibition at 10 µM (Human tyrosinase [1]; Donor S, fair phototype, 10^−5 M, read-out: Inhibition of tyrosinase, Mean 10^−5 M, Donor S): 33.1%
inhibition at 100 µM (Human tyrosinase [1]; donor of black phototype, 10^−4 M, read-out: Inhibition, Mean Negroid skin, 10^−4 M): 44.5%
inhibition at 10 µM (Human tyrosinase [1]; donor of black phototype, 10^−5 M, read-out: Inhibition, Mean Negroid skin, 10^−5 M): 21.9%
Inhibition of fungal tyrosinase, percentage of inhibition, Mean 10^−4M (fungal tyrosinase; 490 nm): 29.41%
Inhibition of fungal tyrosinase, percentage of inhibition, Mean 10^−5M (fungal tyrosinase; 10^−5M, 490 nm): 10.16%
Compound: COc1cc(/C=C/C(=O)NCCc2ccc(O)cc2)ccc1O [Example 3, N-trans-feruloyltyramine]
Percentages of viability, Mean 10^−4 M (normal human melanocytes): 102.55%
Percentages of viability, Mean 10^−5 M (normal human melanocytes): 111.54%
Antiradical activity, Mean 10^−5 M [3]: 13.73%

inhibition at 100 µM (Human tyrosinase [1]; [4]): 27.7%
Compound: COc1cc(CCC(=O)NCCc2ccc(O)cc2)ccc1O [Example 5, N-dihydroferuloyltyramine]

inhibition at 100 µM (Human tyrosinase [1]; [4]): 41.8%
Compound: COc1cc(CCC(=O)NCCc2ccc(O)c(O)c2)ccc1O [Example 6, N-dihydroferuloyldopamine]

inhibition at 100 µM (Human tyrosinase [1]; [4]): 33.6%
inhibition at 10 µM (Human tyrosinase [1]; [5]): 3.48%
Compound: COc1cc(/C=C/C(=O)OCCc2ccc(O)cc2)ccc1O [Example 7, 2-(p-hydroxyphenylethyl)trans-ferulate]

inhibition at 100 µM (Human tyrosinase [1]; [4]): 93.9%
inhibition at 10 µM (Human tyrosinase [1]; [5]): 12.9%
Compound: O=C(CCc1ccc(O)c(O)c1)NCCc1ccc(O)cc1 [Example 13, dihydrocaffeoyltyramine]

inhibition at 100 µM (Human tyrosinase [1]; [4]): 96.2%
inhibition at 10 µM (Human tyrosinase [1]; [5]): 40.7%
Compound: O=C(CCc1ccc(O)cc1)NCCc1ccc(O)cc1 [Example 16, N-dihydrocoumaroyltyramine]

Tyrosinase inhibition, Mean Inhibition (%), 0.03% (Human tyrosinase [1]): 2.93%
Tyrosinase inhibition, Mean Inhibition (%), 0.3% (Human tyrosinase [1]; test concentration 0.3%): 1.55%
Tyrosinase inhibition, Mean Inhibition (%), 3% (Human tyrosinase [1]; test concentration 3%): 0%
Compound: O=C1O[C@H]([C@@H](O)CO)C([O-])=C1OP(=O)([O-])[O-].O=C1O[C@H]([C@@H](O)CO)C([O-])=C1OP(=O)([O-])[O-].[Mg+2].[Mg+2].[Mg+2] [VitC MgP, reference compound]
Cytotoxicity, 0.03% (melanocytes): no
Cytotoxicity, 0.3% (melanocytes): no
Cytotoxicity, 3% (melanocytes): no

inhibition at 100 µM (Human tyrosinase [1]; [4]): 3.74%
Compound: O=C(O)CCc1ccc(O)cc1 [p-Dihydrocoumaric acid, 3-(4-hydroxyphenyl)propionic acid, reference compound]

The remaining lines, values behind:

Compound: O=C(O)C=Cc1ccc(O)c(O)c1 [Caffeic acid, 3,4-dihydroxycinnamic acid, reference compound]
inhibition at 100 µM (Human tyrosinase [1]; [4]): 10.4%
inhibition at 10 µM (Human tyrosinase [1]; [5]): 2.34%
anti-tyrosinase activity, in words (Human tyrosinase [1]): very low activity

Compound: Cl.NCCc1ccc(O)c(O)c1 [Dopamine, 3-hydroxytyramine, reference compound]
anti-tyrosinase activity, in words (Human tyrosinase [1]): very low activity
inhibition at 100 µM (Human tyrosinase [1]; [6]): 10.3%

Compound: COc1cc(C=CC(=O)O)ccc1O [Ferulic acid, 4-hydroxy-3-methoxycinnamic acid, reference compound]
inhibition at 100 µM (Human tyrosinase [1]; [4]): 11.7%
inhibition at 10 µM (Human tyrosinase [1]; [5]): 5.87%
anti-tyrosinase activity, in words (Human tyrosinase [1]): very sparingly active

Compound: O=c1cc(CO)occ1O [Kojic acid, kojic acid]
Cytotoxicity, 0.005% (melanocytes): no
Cytotoxicity, 0.05% (melanocytes): no
Cytotoxicity, 0.5% (melanocytes): cell death
Inhibition of fungal tyrosinase, positive control (fungal tyrosinase; 0.01%): 45%

Compound: Cl.NCCc1ccc(O)cc1 [Tyramine, reference compound]
anti-tyrosinase activity, in words (Human tyrosinase [1]): very low activity
inhibition at 100 µM (Human tyrosinase [1]; [6]): 22.8%

Compound: O=C1O[C@H]([C@@H](O)CO)C(O)=C1O [VitC, Vitamin C]
Tyrosinase inhibition, Mean Inhibition (%), 0.03% (Human tyrosinase [1]): 0%
Cytotoxicity, 0.03% (melanocytes): no
Cytotoxicity, 0.3% (melanocytes; test concentration 0.3%): cell death
Cytotoxicity, 3% (melanocytes; test concentration 3%): cell death

Compound: O=C(O)C=Cc1ccc(O)cc1 [p-Coumaric acid, p-hydroxycinnamic acid, reference compound]
inhibition at 100 µM (Human tyrosinase [1]; [4]): 50.1%
